Assay results as given in patent US20170066717A1, “NEW PHENYLAZETIDINECARBOXYLATE OR -CARBOXAMIDE COMPOUNDS” (INVENTIVA, priority 2014, published 2017).

Assays:
NURR-1/RXRα = target: T1, NURR-1/RXRα (Homo sapiens, UniProt P19793); experiment: Transactivation test, NURR-1-Gal4/RXRα, luciferase reporter in Cos-7 cells; type: cell-based; details: for Emax: COS-7, induction level relative to reference XCT0135908 at 2×10^−5 M (=100%), read-out: hNurr1_RXRaFL Emax (%); for EC50: Cos-7 cells, NURR-1-Gal4/RXRα, luciferase reporter, read-out: hNurr1_RXRaFL EC50
T1 construct: expressed in transfected cells; host or cells: Cos-7 cells

NURR-1/RXRγ = target: T2, NURR-1/RXRγ (Homo sapiens, UniProt P48443); experiment: Transactivation test, NURR-1-Gal4/RXRγ, luciferase reporter in Cos-7 cells; type: cell-based; details: for Emax: COS-7, induction level relative to reference XCT0135908 at 2×10^−5 M (=100%), read-out: hNurr1_RXRgFL Emax (%); for EC50: Cos-7 cells, NURR-1-Gal4/RXRγ, luciferase reporter, read-out: hNurr1_RXRgFL EC50
T2 construct: expressed in transfected cells; host or cells: Cos-7 cells

[1] = system: dopaminergic neurons of primary culture of rat embryo mesencephalon treated with MPP+; experiment: Neuroprotection in primary culture of rat embryo mesencephalon treated with MPP+ (count of tyrosine hydroxylase expressing cells); type: cell-based; details: recombinant human BDNF 10 ng/mL = 100%, 2 days with MPP+
Experimental: Another in vitro test was carried out with the compounds according to the invention, for the purpose of verifying that the molecules indeed have the expected neuroprotective effect in vitro.
The compounds were tested in a model of primary culture of rat embryo mesencephalon treated with 1-methyl-4-phenylpyridinium (MPP+), which is the active metabolite of 1-methyl-4-phenyl-1,2,3,6-tetrahydropyridine (MPTP). MPP+ enters into dopananergic neurons via the dopamine transporter and causes the death of these dopaminergic neurons. The following protocol was used.
Gestating female rats (15 days of gestation) were euthanized and the rat embryos were removed. The mesencephalons were removed. The tissue was then dissociated mechanically and by using trypsin. The cells collected after centrifugation were distributed into 96-well plates and left to stand for 5 days. The culture conditions made it possible to obtain a cell layer composed of neurons (dopaminergic and others) and astrocytes. On the 6th day, the cells were optionally treated with MPP+ in the presence or absence of test compound. After 2 days of incubation, the cells were fixed and various cell labellings were carried out; staining of the nuclei with the Hoechst fluorescent label and immunolabelling of tyrosine hydroxylase. The cells expressing tyrosine hydroxylase were counted using an image analyzer coupled to an optical microscope.
Recombinant human BDNF trophic factor (10 ng/mL) was used as reference. The activities of the compounds are given as percentages of activity relative to the BDNF reference, the activity of which is arbitrarily defined as being equal to 100%.

[2] = Plasma pharmacokinetics in mice after oral administration; type: in vivo; details: mouse, male C57/Bl6 mice, oral 10 mg/kg; for AUC: sampling 15 min to 7 h, log-linear trapezoidal method, read-out: AUCplasma; for Cmax: suspension in 1% methylcellulose/0.1% Poloxamer 188
Experimental: (§1) Three series of in vivo tests were carried out with compounds representative of the invention, for the purpose of determining their pharmacokinetic plasma profile and their brain penetration.
1. Study of the Plasma Phannacokinectis in Mice After Oral Administration
Male C57/B16 mice (25-30 g) originating from the establishment Janvier, Le Genest-St-Isle, France were used for this study (9 mice per dose). The animals were fed with standard feed for rodents (Purina Mills, St. Louis, Mo.), placed in cages and subjected to light/darkness cycles of 12 h/12 h, the temperature of the room being maintained at 22±2° C. and the humidity level at 55±10%.
The mice were not deprived food before the administration. Water was provided at will throughout the study. The test compound was admistered orally at 10 mg/kg. For the oral administration at 10 mg/kg, the animals were green, by gavage, 10 mL/kg of a suspension of the test compound, prepared in 1% methylcellulose, 400 cps/0.1% Poloxamer 188/water.
The animals were sacrificed under anesthesia at times 15 min, 30 min, 1 h, 3 h and 7 h after gavage. The blood was collected at each time, and from each animal sacrificed 0.5 mL of blood collected in 1.5 mL tubes containing 20 μL of evaporated anticoagulant (solution of sodium heparinate at 1000 IU/mL) was centrifuged at 4500 g for 3 min in order to obtain approximately 200 μL of plasma. The plasma was divided up into 2 aliquots of 70 μL minimum, which were stoted at −20° C. until they were treated by protein precipitation and then analysis by liquid chromatography coupled to tandem mass spectrometry (LC-MS/MS) in order to quantify the compound tested.
The pharmacokinetic plasma parameters in the mice after oral administration were determined using a non-compartmental approach with the Phoenix WinNonLin software. The area under the curve (AUC0-1) was determined bv the log-linear trapezoidal method. The tesults are brought together in the following table.

[3] = Brain penetration in rats after intravenous administration; type: in vivo; details: rat; for Kp at 4 h: male, Wistar, intravenous, 4 mg/kg, ratio of Cmax brain to Cmax plasma after the 4 hours of infusion, rats, read-out: Kp (partition coefficient between the brain and the plasma); for Cmax at 4 h: male Wistar rats, 4 mg/kg iv infusion into the jugular vein for 4 hours, plasma at end of infusion
Experimental: as §1
2. Study of the Brain Penetration in Rats After Intravenous Administration
Male Wistar rats (250-300 g) originating from the establishment Janvier, Le Genest-St-Isle, France were used for this study (4 rats per study). The animals were fed with standard feed for rodents (Purina Mills, St. Louis, Mo.), placed in cages and subjected to light/darkness cycles of 12 h/12 h, the room temperature being maintained at 22±2° C. and the humidity level at 55±10%. The rats were not deprived food before the administration. Water was provided at will throughout the study.
The test compound was administered intravenously at 4 mg/kg by infusion into the jugular vein for 4 hours. For the intravenous administration, the animals were infused with 12 mL/kg of a solution of the test compound, prepared in 2% Cremophor EL/0.9% NaCl.
The animals were sacrificed under anesthesia after 4 hours of infusion. The blood and the brain were collected from each sacrificed animal 0.5 mL of blood collected in 1.5 mL tubes containing 20 μL of evaporated anticoagulant (solution of sodium heparinate at 1000 IU/mL) was centrifuged at 4500 g for 3 min in order to obtain approximately 200 μL of plasma. The plasma was divided up into 2 aliquots of 70 μL minimum, which were stored at −20° C. until they were treated by protein precipitation and then analysis by liquid chromatography coupled to tandem mass spectrometry (LC-MS/MS) in order to quantify the compound tested.
The brains were immersed in liquid nitrogen directly after they were removed, then stored at −20° C. for analysis. The brains were then ground in the presence of an aqueous/organic solvent mixture in order to obtain a homogenate. These homogenates were then centrifuged and the compound tested was extracted from the supernatant obtained, by liquid-liquid extraction, and then quantified by LC-MS/MS.
The brain penetration in the rats is represented by the Kp, which is the partition coefficient between the brain and the plasma. It is calculated by the ratio of the concentration measured in the brain (Cmax brain) and the plasma (Cmax plasma) after the 4 hours of infusion.

T1 sequence (P19793 whole entry, the tested form may be a part): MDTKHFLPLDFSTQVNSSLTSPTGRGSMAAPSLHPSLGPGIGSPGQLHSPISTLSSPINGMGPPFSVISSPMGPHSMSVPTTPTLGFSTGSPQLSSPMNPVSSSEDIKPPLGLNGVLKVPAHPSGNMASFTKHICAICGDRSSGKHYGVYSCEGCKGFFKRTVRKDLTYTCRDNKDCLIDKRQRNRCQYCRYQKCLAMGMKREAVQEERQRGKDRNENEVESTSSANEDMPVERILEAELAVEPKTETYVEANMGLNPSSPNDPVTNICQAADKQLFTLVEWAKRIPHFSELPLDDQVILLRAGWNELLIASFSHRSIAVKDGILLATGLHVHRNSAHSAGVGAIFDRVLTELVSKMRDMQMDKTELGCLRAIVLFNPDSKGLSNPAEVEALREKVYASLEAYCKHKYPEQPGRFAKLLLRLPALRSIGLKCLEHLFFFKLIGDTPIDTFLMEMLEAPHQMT
T1 sequence (P43354 whole entry partner, the tested form may be a part): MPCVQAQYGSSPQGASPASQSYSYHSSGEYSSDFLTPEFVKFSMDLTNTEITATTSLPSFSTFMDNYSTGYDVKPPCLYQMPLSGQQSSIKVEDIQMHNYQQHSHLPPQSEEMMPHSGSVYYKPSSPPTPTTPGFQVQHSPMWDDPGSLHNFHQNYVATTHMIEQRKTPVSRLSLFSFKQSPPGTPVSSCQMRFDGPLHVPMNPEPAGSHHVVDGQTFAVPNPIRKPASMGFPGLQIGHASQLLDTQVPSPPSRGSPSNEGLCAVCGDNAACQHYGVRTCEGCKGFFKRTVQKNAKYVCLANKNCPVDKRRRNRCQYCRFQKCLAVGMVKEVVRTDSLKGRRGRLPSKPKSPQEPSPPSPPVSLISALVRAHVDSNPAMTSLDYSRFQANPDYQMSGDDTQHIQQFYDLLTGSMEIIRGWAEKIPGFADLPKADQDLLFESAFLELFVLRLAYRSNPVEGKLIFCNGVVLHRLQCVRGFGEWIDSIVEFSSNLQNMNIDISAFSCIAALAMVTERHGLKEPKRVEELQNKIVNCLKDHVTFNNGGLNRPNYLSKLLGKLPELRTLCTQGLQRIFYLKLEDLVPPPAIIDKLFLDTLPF
T1 sequence (P04386 1-147 partner limits assumed): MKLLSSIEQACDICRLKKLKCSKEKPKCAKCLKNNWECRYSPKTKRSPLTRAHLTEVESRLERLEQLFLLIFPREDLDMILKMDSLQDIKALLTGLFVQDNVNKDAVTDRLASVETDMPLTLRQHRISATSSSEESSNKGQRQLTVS
T2 sequence (P48443 whole entry, the tested form may be a part): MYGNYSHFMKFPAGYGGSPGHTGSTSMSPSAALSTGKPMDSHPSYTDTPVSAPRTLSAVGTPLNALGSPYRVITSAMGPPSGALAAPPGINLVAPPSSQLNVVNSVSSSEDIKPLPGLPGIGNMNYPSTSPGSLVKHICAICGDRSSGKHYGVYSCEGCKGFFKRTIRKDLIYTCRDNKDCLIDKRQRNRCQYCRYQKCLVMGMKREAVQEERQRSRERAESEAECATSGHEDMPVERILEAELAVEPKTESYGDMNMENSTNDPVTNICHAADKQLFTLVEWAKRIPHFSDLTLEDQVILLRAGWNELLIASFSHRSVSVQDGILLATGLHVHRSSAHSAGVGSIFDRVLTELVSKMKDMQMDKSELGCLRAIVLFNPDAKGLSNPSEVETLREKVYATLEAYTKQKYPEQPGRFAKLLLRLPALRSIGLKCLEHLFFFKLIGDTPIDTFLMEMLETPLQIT
T2 sequence (P43354 whole entry partner, the tested form may be a part): as the sequence (P43354 whole entry partner, the tested form may be a part) above
T2 sequence (P04386 1-147 partner limits assumed): as the sequence (P04386 1-147 partner limits assumed) above

Structure (SMILES)	Emax (NURR-1/RXRα) [%]	EC50 (NURR-1/RXRα) [nM]	Emax (NURR-1/RXRγ) [%]	EC50 (NURR-1/RXRγ) [nM]	percentage of activity relative to the BDNF reference ([1]; compound 1 μM) [%]	percentage of activity relative to the BDNF reference ([1]; compound 10 μM) [%]	AUC [2] [ng·h/mL]	Cmax [2] [ng/mL]	Kp at 4 h [3]	Cmax at 4 h [3] [ng/mL]
Cc1cc(-c2cc(C(C)(C)C)cc(C(C)(C)C)c2)cc(N2CC(C(=O)O)C2)c1 [Example 7, 1-[3-(3,5-di-tertbutylphenyl)-5-methylphenyl]azetidine-3-carboxylic acid]	100	4	97	6	61	72	48600	12800	0.76	6750
CC(C)(C)c1cc(-c2cccc(N3CC(C(=O)O)C3)c2)cc(C(C)(C)C)c1 [Example 11, 1[3-(3,5-di-tert-butylphenyl)phenyl]azetidine-3-carboxylic acid]	105	11	100	14	78	88	52000	10300	1.22	4140
Cc1cc(-c2ccc(Cl)c(C(F)(F)F)c2)cc(N2CC(C(=O)O)C2)c1 [Example 22, 1-[3-[4-chloro-3-(trifluoromethyl)phenyl]-5-methylphenyl]azetidine-3-carboxylic acid]	91	9	87	13	79	103	72200	18600	0.14	9900
Cc1cc(N2CC(C(=O)O)C2)cc(-n2ccc3cc(C(F)(F)F)ccc32)c1 [Example 50, 1-[3-methyl-5[5-(trifluoromethyl)indol-1-yl]phenyl]azetidine-3-carboxylic acid]	95	2	102	5	74	91	24300	11400	0.19	4920
O=C(O)C1CN(c2cccc(-c3cc(C(F)(F)F)ccc3OCCc3cccs3)c2)C1 [Example 100, 1-[3-[2-[2-(2-thienyl)ethoxy]-5-(trifluoromethyl)phenyl]phenyl]azetidine-3-carboxylic acid]	63	14	63	24	100	106	56600	11200	0.75	6070
Cc1nnc(COc2ccc(C(F)(F)F)cc2-c2cccc(N3CC(C(=O)O)C3)c2)o1 [Example 110, 1-[3-[2-[(5-methyl-1,3,4-oxadiazol-2-yl)methoxy]-5-(trifluoromethyl)phenyl]phenyl]azetidine-3-carboxylic acid]	49	1510	32	1720	74	102	40100	8710	0.2	10100
O=C(O)C1CN(c2cccc(N3CC4(CCC4)Oc4cc(C(F)(F)F)ccc43)c2)C1 [Example 113, 1-[3-[7-(trifluoromethyl)spiro[3H-1,4-benzoxazine-2,1′-cyclobutane]-4-yl]phenyl]azetidine-3-carboxylic acid]	140	3	139	4	90	80	3340	2290	1.2	3430
O=C(O)C1CN(c2cccc(N3CCOc4cc(C(F)(F)F)ccc43)c2)C1 [Example 115, 1-[3-[7-(trifluoromethyl)-2,3-dihydro-1,4-benzoxazin-4-yl]phenyl]azetidine-3-carboxylic acid]	114	58	129	22	103	77	51600	24400	0.22	10600
CCCC1Oc2cc(C(F)(F)F)ccc2N(c2cccc(N3CC(C(=O)O)C3)c2)C1=O (stereo not shown) [Example 122, 1-[3-[3-oxo-2-propyl-7-(trofluoromethyl)-1,4-benzoxazin-3-yl]phenyl]azetidine-3-caroxylic acid]	93	13	95	14	92	39	34100	7840	1.14	3860
CN(C)Cc1cn(-c2cccc(N3CC(C(=O)O)C3)c2)c2ccc(C(F)(F)F)cc12 [Example 130, 1-[3-[3-(dimethylaminomethyl)-5-(trifluoromethyl)indol-1-yl]phenyl]azetidine-3-carboxylic acid]	113	246	109	513	57	103	23000	13800	0.13	9010
